Measurements reported in PubChem BioAssay AID1288 (Columbia University Molecular Screening Center, 2008).
Calls of active or inactive are those of the source. No rule for the calls is given here.

Assay: E-selectin induction blockers, endothelial cells – imaging, retest plus dose response, cell count, confirmation (AID 1288);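 also: 0% = stimulated vehicle wells and 100% = unstimulated vehicle wells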
Details: human endothelial cells, TNFa-induced E-selectin, imaging; at 2 µM; active compounds read high

SMILES	inhibition
O=C(Nc1ccccc1C(=O)N/N=C/c1ccco1)c1ccc(F)cc1	10.5% (inactive)
COCCN(C(=O)CCC(=O)Nc1ccccn1)C(C(=O)NC1CCCC1)c1ccc(OC)cc1 (stereo unspecified)	2.57% (inactive)
O=C(c1ccccc1)N1CCN(c2ccccc2F)CC1	9.93% (inactive)
COc1ccc(C(=O)/C=C/c2ccc(F)cc2)c(OC(=O)c2ccc([N+](=O)[O-])cc2)c1	5.11% (inactive)
COc1cccc(C(C)NC(=O)c2c(F)cccc2Cl)c1 (stereo unspecified)	21.5% (inactive)
CCCn1nnnc1SCC(=O)N1CCOCC1	20.5% (inactive)
CCOC(=O)c1sc2nc(CSc3nc4ccccc4n3CC)[nH]c(=O)c2c1C	-2.72% (inactive)
COc1ccc(C(c2nnnn2Cc2ccccc2)N2CCN(c3nc4ccccc4s3)CC2)cc1 (stereo unspecified)	2.21% (inactive)
Cc1ccc(/C=c2\sc3n(c2=O)CN(c2cccc(Br)c2)CN=3)o1	3.58% (inactive)
CCCN1CCc2[nH]c(=S)[nH]c(=O)c2C1	-2.07% (inactive)
COc1ccc2cc(S(=O)(=O)N3CCN(C)CC3)ccc2c1	16.8% (inactive)
O=C(O)c1cc2nc(-c3ccc(F)cc3)cc(C(F)(F)F)n2n1	8.45% (inactive)
CCc1cc[n+](CC(=O)Nc2ccc(Cl)cc2Cl)cc1	5.98% (inactive)
COc1cc(-c2noc(CCC(=O)Nc3cccnc3)n2)cc(OC)c1OC	33.6% (inactive)
CC1=NN(C(C)C)C(=O)C1	25.1% (inactive)
c1ccc(NC2=NCCCCS2)cc1	15.9% (inactive)
COc1ccc(C2N=C(N)N=C(N)N2c2ccccc2)cc1OC (stereo unspecified)	23% (inactive)
CCn1nnnc1-c1ccc(OC)c(S(=O)(=O)NCc2ccccc2)c1	5.72% (inactive)
CC(C)CCNC(=O)C1CCN(c2nc3ccccc3o2)CC1	12.3% (inactive)
COc1ccc(N/C=C/C(=O)c2ccc(C)cc2)c([N+](=O)[O-])c1	17.3% (inactive)
COc1ccc2nc(SCc3nc(N)nc(Nc4ccccc4)n3)[nH]c2c1	6.2% (inactive)
Cc1ccc(NC(=O)N2CCC(C(=O)NCCC3=CCCCC3)CC2)cc1	11.6% (inactive)
Oc1ccccc1Nc1nc(NCC2CCCO2)c2ccccc2n1 (stereo unspecified)	5.39% (inactive)
COc1ccc(-c2cc(C)nc(SCc3cccc(C(=O)O)c3)n2)cc1	16.2% (inactive)
O=C(Nc1ccccc1)N(CCc1ccncc1)C1CCCCC1	5.75% (inactive)
Fc1ccc(-c2n[nH]c(=S)n2/N=C/c2c[nH]c3ccccc23)cc1	27.9% (inactive)

SMILES	inhibition
Brc1ccc(C2=CC(c3cccs3)n3ncnc3N2)cc1 (stereo unspecified)	13.5% (inactive)
C/C(=N\NC(=O)c1cccc(C)c1)c1ccc(N2CCOCC2)cc1	4.53% (inactive)
O=C1C=C(c2ccccc2)C(O)(c2ccccc2)C1 (stereo unspecified)	-0.71% (inactive)
CC(C)C(=O)N(c1ccc(F)cc1)C1C=CS(=O)(=O)C1 (stereo unspecified)	-2.25% (inactive)
Cc1nc2c(sc3nc4c(cc32)COC(C)(C)C4)c(=O)o1	6.35% (inactive)
COc1cc(/C=C2\SC(=S)N(CC(=O)Nc3ccc(O)cc3)C2=O)cc(OC)c1OC	-1.6% (inactive)
COc1ccc(OC)c(CCNC(=O)CSc2ccsc2[N+](=O)[O-])c1	4.97% (inactive)
COC(=O)C(NC(=O)c1ccccc1)c1ccccc1 (stereo unspecified)	5.65% (inactive)
Cc1cc(C(=O)N2CCc3ccccc32)c2ccccc2n1	2.81% (inactive)
C=CCN(CC=C)C(=O)Nc1cc(Cl)ccc1OC	15.5% (inactive)
CCc1cc(OCCOCCN(C)C)ccc1Cl	8.67% (inactive)
Fc1ccc(CNc2nc(-c3ccccc3)nc3ccccc23)cc1	26.5% (inactive)
CC(C)C(=O)Nc1ccc(-c2nc3cccnc3o2)cc1	15.7% (inactive)
COC(=O)c1cc2ccsc2n1Cc1nc(-c2cccc(Cl)c2)oc1C	-2.86% (inactive)
COc1ccc(C2(CNC(=O)c3cc([N+](=O)[O-])cc([N+](=O)[O-])c3)CCCC2)cc1OC	4.01% (inactive)
O=C(c1ccc(Cl)cc1)N1CCCC(c2ccccc2)=N1	10% (inactive)
Cc1ccc(C(=O)n2c(=S)nc3ccccn32)cc1	22.2% (inactive)
CCN1CCN(Cc2ccc(C)cc2)CC1	6.18% (inactive)
Cc1ccc(S(=O)(=O)N(C)CCCC(=O)Nc2cc(C)ccc2C)cc1	-2.3% (inactive)
CCOc1cccc(C(=O)NC(=S)Nc2ccc(N3CCCC3)cc2)c1	10.5% (inactive)
Cc1c(NC(=O)CN2CC(C)OC(C)C2)c(=O)n(-c2ccccc2)n1C (stereo unspecified)	35.8% (inactive)
FC(F)(F)c1cnc2c(-c3ccccc3)n[nH]c2c1	0.15% (inactive)
O=C(Cn1nnc(-c2ccc(Cl)cc2)n1)NC1CCN(Cc2ccccc2)CC1	11.8% (inactive)
CC(=O)Oc1cccc(N2C(=O)C3CC=C(Cl)CC3C2=O)c1 (stereo unspecified)	31.6% (inactive)
COc1ccccc1C(=O)NCCN1CCN(C(=O)c2ccccc2OC)CC1	9.74% (inactive)
O=C(/C=C\Nc1cccc(F)c1)c1cccs1	-1.7% (inactive)

SMILES	inhibition
CCn1cc(C(=O)O)c(=O)c2cc(F)c(N3CCN(C(=S)NC(=O)c4ccc(Br)cc4)CC3)cc21	7.45% (inactive)
CC(C)CCNC(=O)c1nnc(Cc2ccc(Cl)cc2)o1	4.7% (inactive)
Clc1ccc(CNc2ccc3nnc(-c4ccccc4)n3n2)cc1	0.04% (inactive)
O=S1(=O)CCN(C(CCO)c2cccc(C(F)(F)F)c2)CC1 (stereo unspecified)	4.23% (inactive)
CCCOc1ccc(NC(=O)C(=O)NCCCn2ccnc2)cc1	42.5% (inactive)
CCCNC(=O)C1CCN(S(=O)(=O)c2c(C)noc2/C=C\c2ccc(OC)cc2)CC1	6.76% (inactive)
CCOC(=O)c1c(NC(=O)CSc2nnc(C)c(=O)[nH]2)sc(C)c1C	8.64% (inactive)
COc1ccc(NC(=O)c2ccc(CNc3c(NC4CCCCC4)c(=O)c3=O)cc2)cc1OC	3.32% (inactive)
O=C(CSc1nnc(-c2cc(-c3cccs3)nc3ccccc23)o1)NC1CCCCC1	5.57% (inactive)
COC(=O)c1c(-c2ccccc2)csc1NC(=O)c1ccco1	14.7% (inactive)
COc1ccc(C)cc1S(=O)(=O)N(C)CC(=O)N1CCCCC1	-0.62% (inactive)
COc1ccc(-n2c(C)c3c(OC)cccc(=O)c3c2C)cc1	-2.64% (inactive)
Cc1nc2ccc(NC(=O)C3CCN(S(=O)(=O)c4cccs4)CC3)cc2s1	18.1% (inactive)
CCOC(=O)N1CCC(N2CCN(S(=O)(=O)c3ccc(NC(C)=O)cc3)CC2)CC1	5.13% (inactive)
c1ccc(-n2c(-c3ccncc3)nnc2N2CCOCC2)cc1	5.7% (inactive)
CCOC(=O)C1=C(c2ccccc2)N(C)C(=O)NC1c1ccc(O)c(OC)c1 (stereo unspecified)	8.42% (inactive)
CCC(C(=O)N1CCc2cc(OC)c(OC)cc2C1)c1ccccc1 (stereo unspecified)	-0.78% (inactive)
Cc1c(N=C/C=C2\N(C)c3ccccc3C2(C)C)c(=O)n(-c2ccccc2)n1C	1.21% (inactive)
OC(c1ccc2c(c1)OCO2)c1nccc2ccccc12 (stereo unspecified)	4.74% (inactive)
Cc1ccc(C)n1NC(=O)c1cccs1	7.45% (inactive)
CC(=O)c1ccc(NC(=S)N2CC(C)CC(C)C2)cc1 (stereo unspecified)	-4.33% (inactive)
O=[N+]([O-])c1ccc(N2CCNCC2)cc1NCC1CCCO1 (stereo unspecified)	-1.91% (inactive)
CCn1cc(C(=O)NCc2ccco2)c(=O)c2cc(S(=O)(=O)N3CCc4ccccc4C3)ccc21	41.9% (inactive)
O=C(N/N=C/c1ccc(C(F)(F)F)cc1)c1ccc(O)cc1	4.56% (inactive)
CC(C)C(c1nnnn1Cc1ccc2c(c1)OCO2)N1CCN(C)CC1 (stereo unspecified)	6.53% (inactive)
COc1ccc(S(=O)(=O)Nc2ccc(C)cc2)cc1N(C)S(=O)(=O)c1ccc(Cl)cc1	3.82% (inactive)

SMILES	inhibition
CCN(CC)S(=O)(=O)c1ccc(-c2nnc(SCC(=O)Nc3ccc(OC)cc3)o2)cc1	23.9% (inactive)
C=CCn1c(COc2cccc(C)c2C)nnc1SCC(=O)N1CCN(c2ccccc2)CC1	5.6% (inactive)
O=C(CN1CCN(c2ccccc2F)CC1)c1c[nH]c2ccccc12	-2.26% (inactive)
CCOC(=O)C1CCCN(Cc2ccccc2F)C1 (stereo unspecified)	30.6% (inactive)
Cc1cc(C)n2nc(C(=O)N(C)C(c3ccccc3)c3ccccc3)nc2n1	7.77% (inactive)
COCCN1C(=O)N(c2cccc(C)c2)C(=O)C1CC(=O)Nc1ccc(F)cc1 (stereo unspecified)	12% (inactive)
Cc1ccc2cc3c(NC(=O)C(C)C)nn(C)c3nc2c1	9.56% (inactive)
COc1c(Cl)cc(Cl)cc1C(=O)Nc1ccc(NC(C)=O)cc1	5.32% (inactive)
CCOc1cc(C(=O)NCc2nnc(SCC(=O)OC)n2C)cc(OCC)c1OCC	-6.58% (inactive)
CCOC(=O)Cc1csc(NC(=O)COc2ccc(OC)cc2)n1	6.28% (inactive)
Cc1ccc(SCCC(=O)Nc2ccccc2C(=O)NC(C)C)cc1	12.3% (inactive)
CCN(CC)S(=O)(=O)c1ccc(NC(=O)CSc2nnc(-c3ccc(F)cc3)o2)cc1	1.25% (inactive)
CCCCOC(=O)CCn1c(=S)oc2ccccc21	1.96% (inactive)
O=C(N/N=C/c1ccc([N+](=O)[O-])s1)c1cccnc1	44.3% (inactive)
COCCCNCCCCOc1ccc(OCc2ccccc2)cc1	-0.12% (inactive)
O=C(/C=C/c1ccccc1)Nc1ncn[nH]1	5.62% (inactive)
Cc1ccc(C2(O)CN(c3ccccc3C)C3=[N+]2CCS3)cc1 (stereo unspecified)	2.57% (inactive)
C=CCNC(=S)NNC(=O)c1ccc(OCC)cc1	1.76% (inactive)
O=c1cc(CO)oc(C(Nc2ccccn2)c2ccccc2F)c1O (stereo unspecified)	13.7% (inactive)
COC(=O)c1cnc(SCc2ccc(C)cc2)n1C	15.2% (inactive)
Cc1nc(SCC(N)=O)c([N+](=O)[O-])[nH]1	9.44% (inactive)
COc1ccc(Br)cc1CN(C)CC(=O)Nc1cc(Cl)ccc1Cl	-1.79% (inactive)
O=C(O)CSc1nnc(-c2ccncc2)n1CCc1ccccc1	28.9% (inactive)
